From patent US7682351B2, “Method for infusing insulin to a subject to improve impaired hepatic glucose processing” (priority 2003, dated 2010) come the findings set out here.

Holding throughout (type): in vivo, human
Experiment [1] has as its system type 1 DM patients with nephropathy. In words: 18-month multi-center controlled study of Chronic Intermittent Intravenous Insulin Therapy (CIIIT) on progression of diabetic nephropathy. The protocol:
A study was conducted to assess the effects of Chronic Intermittent Intravenous Insulin Therapy (CIIIT) on the progression of diabetic nephropathy in patients with type 1 diabetes mellitus (DM). This 18-month multi-center, prospective, controlled study involved 49 type 1 DM patients with nephropathy who were following the Diabetes Control and Complications Trial (DCCT) intensive therapy (IT) regimen. Of these, 26 patients formed the control group C, which continued on IT, while 23 patients formed the treatment group (T) and underwent, in addition to IT, weekly CIIIT.
For all of the above listed examples, after the initial few days of treatment, the patients underwent treatment once a week, each treatment day consisting of three infusions of insulin accompanied by ingestion of carbohydrates. The infusion device used to infuse the insulin was the BIONICA MD-110 pump. Typically there were ten pulses given over a period of one hour, and a rest period of one hour was taken between infusions of insulin. The form in which the carbohydrates were ingested changed from time to time and included eating foods of high glycemic index including but not limited to bread and cake. The patients' circulating glucose was measured once every thirty minutes by the finger stick method currently used by most diabetic patients. […]

Experiment [2] relates to type 2 diabetic male with autonomic neuropathy. In words: Case report: elevated blood pressure with autonomic neuropathy treated with the subject method. The note with it: 200/120 before treatment despite intensive insulin therapy; 5 years of use. The source says:
(§1) The preferred embodiment of the method for delivering insulin pulses to a patient to improve impaired hepatic glucose processing is as follows. On the morning of the procedure, the patient is preferably seated in a blood drawing chair and a 23 gauge needle or catheter is preferably inserted into a hand or forearm vein to obtain vascular access. However, any system of such access may accomplish the needed result, including indwelling catheters, PICC lines and PORTACATHS. After a short equilibration period, the patient is asked to make a circulating glucose measurement prior to starting the actual infusion of insulin. A steady baseline circulating glucose level is achieved when two identical consecutive measurements taken 5 minutes apart is obtained. It is preferable that patients have circulating glucose levels close to 200 mg/dl prior to using the infusion method. In the case of pregnant diabetic women, however, every attempt is made to keep the maximum circulating glucose level to 150 mg/dl or less. […]
(§2) For all of the above listed examples, after the initial few days of treatment, the patients underwent treatment once a week, each treatment day consisting of three infusions of insulin accompanied by ingestion of carbohydrates. […] The patients' circulating glucose was measured once every thirty minutes by the finger stick method currently used by most diabetic patients. […]

The subject of experiment [3] is patients suffering from senile dementia. In words: Senile dementia in diabetic patients treated with the method (Hepatic Activation). An excerpt:
(§3) The preferred embodiment of the method for delivering insulin pulses to a patient to improve impaired hepatic glucose processing is as follows. On the morning of the procedure, the patient is preferably seated in a blood drawing chair and a 23 gauge needle or catheter is preferably inserted into a hand or forearm vein to obtain vascular access. However, any system of such access may accomplish the needed result, including indwelling catheters, PICC lines and PORTACATHS. After a short equilibration period, the patient is asked to make a circulating glucose measurement prior to starting the actual infusion of insulin. A steady baseline circulating glucose level is achieved when two identical consecutive measurements taken 5 minutes apart is obtained. It is preferable that patients have circulating glucose levels close to 200 mg/dl prior to using the infusion method. In the case of pregnant diabetic women, however, every attempt is made to keep the maximum circulating glucose level to 150 mg/dl or less.
After the circulating glucose measurement has been taken and the patient has the proper circulating glucose starting level, the patient is asked to consume a liquid or food containing glucose. The amount of glucose given to s diabetic patient ranges from 60 to 100 grams, but for small framed people the amount could be as low as 40 grams of glucose. […]

Experiment [4] relates to diabetic patients with retinopathy. Put plainly: Case reports: diabetic retinopathy patients treated with the subject method. As to conditions: single patients with retinopathy; listed as subject method.
Description: as §1, §2

Experiment [5] relates to type 2 diabetic patient with diabetes related kidney disease. Put plainly: Case report: diabetes related kidney disease (proteinuria) treated with the subject method. The note with it: 1500 milligrams per 24-hour period before treatment, increasing 500 milligrams/24 hours/year; 5 years of use.
Description: as §1, §2

Experiment [6] relates to diabetic patients with heart disease. Put plainly: Case reports: diabetic heart disease patients treated with the subject method.
Description: as §3
After the circulating glucose measurement has been taken and the patient has the proper circulating glucose starting level, the patient is asked to consume a liquid or food containing glucose. The amount of glucose given to s diabetic patient ranges from 60 to 100 grams, but for small framed people the amount could be as low as 40 grams of glucose. However, the amount of initial glucose given to the patient may vary. Liquid or food containing glucose is consumed by the patient to prevent the patient from becoming hypoglycemic. The preferred liquid or food is GLUCOLA, but any similar type of liquid or high glycemic food, including but not limited to cake and bread, containing glucose may be given to the patient. […]
as §2

The test system of experiment [7] is diabetic patients with neuropathy. In words: Case reports: diabetic neuropathy patients treated with the subject method.
Description: as §3
After the circulating glucose measurement has been taken and the patient has the proper circulating glucose starting level, the patient is asked to consume a liquid or food containing glucose. The amount of glucose given to s diabetic patient ranges from 60 to 100 grams, but for small framed people the amount could be as low as 40 grams of glucose. However, the amount of initial glucose given to the patient may vary. Liquid or food containing glucose is consumed by the patient to prevent the patient from becoming hypoglycemic. The preferred liquid or food is GLUCOLA, but any similar type of liquid or high glycemic food, including but not limited to cake and bread, containing glucose may be given to the patient. In a non-diabetic patient more glucose may be required than in the diabetic patient, but the other parameters would remain the same, including the need for a pulsed delivery of insulin.
Pulses of insulin are then administered intravenously at planned intervals of time, usually every six minutes. However other intervals may be used from as low as every three minutes up to every 30 minutes. For diabetic patients the amount of insulin in each pulse is 10-200 milliunits of insulin per kilogram of body weight; for non-diabetic patients the amount of insulin in each pulse is slightly lower. […]
as §2

The test system of experiment [8] is diabetic patients with leg ulcers. Put plainly: Case reports: diabetes related leg ulcers treated with the subject method. The note with it: ulcers not responding to any available therapy; listed as subject method.
Description: as §1, §2

Where [9] appears, read: type 1 person with severe neuropathy, Example 14.

Entries after “also recorded” stand apart in the source; their conditions may differ.

Regarding insulin, in experiment [1] (CIIIT added to IT in type 1 DM patients with overt nephropathy), the “effect on progression of diabetic nephropathy (conclusion)” value is recorded as “markedly reduce the progression of diabetic nephropathy”. In experiment [1] (T group (n=23): DCCT intensive therapy (IT) plus weekly CIIIT, 18 months, control group C on IT alone 7.69±1.88 ml/min/yr, P=0.0343), the “rate of creatinine clearance (CrCl) decline” value was 2.21±1.62 ml/min/yr. Also, in experiment [2], the “blood pressure after treatment” value is reported as 120/80. In addition, the “dementia symptoms after treatment” value in experiment [3] (listed as Hepatic Activation) was “significant improvement in their motor skills, memory, and cognitive function”; in experiment [3] (listed as present invention) it was “clearly shown improvement in confusion, weakness, disorientation, cognitive function and lack of memory”. Besides, the “eyesight / retinal outcome after treatment” value in experiment [4] was “eyesight improved to the point where night driving was no longer a concern; also recorded: the bleeding stopped, and there was no further deterioration of the retina”. In addition, the proteinuria after treatment in experiment [5] is reported as 600-800 milligrams/24 hours. In addition, in experiment [6] (single patients with diabetes related heart disease, listed as subject method), the “cardiac clinical outcome after treatment” value was “no longer required a heart transplant; also recorded: could withstand 4-vessel by-pass surgery; also recorded: condition improved to the point where the doctors performed two instead of one grafts”. Besides, the “daily insulin intake after treatment” value in experiment [6] (type 2 patient with dilated cardiomyopathy, 150 units a day before treatment) was 24-26 units/day. In experiment [6] (type 2 patient with severe dilated cardiomyopathy, 14-19% before treatment, 10 years of treatment), the “ejection fraction after treatment” value was 29-32%. Also, the “neuropathic pain after treatment” value in experiment [7] (single patients with polyneuropathy / painful peripheral neuropathy, weekly treatment, listed as subject method) was “pain has been reduced to the point where the person enjoys rigorous exercise; also recorded: no longer takes pain medication and has no twinges of pain in their legs; also recorded: pain had subsided to the point where they no longer used a wheelchair”. In addition, in experiment [7] (setting [9]), the gastroparesis after treatment result is “gastroparesis was reversed”. In addition, the “numbness in legs after treatment” value in experiment [7] (setting [9]) is “numbness in their legs has gone away”. Besides, the “autonomic neuropathy symptoms after treatment (overall disease state)” value in experiment [7] (type 1 person, bed-ridden with autonomic neuropathy before treatment, two years of use) is on record as “reversed all of the diseases to the point where they have taken themself off disability”. Besides, the “leg ulcer outcome after treatment” value in experiment [8] is “ulcers on their second leg healed; also recorded: ulcers healed and have never returned”.
